Source: patent US20030138864A1, “Method for identifying an enzyme to design anti-cancer compounds” (priority 2001, published 2003)
Like-named read-outs stand apart in the source and are kept apart here.

Legend:
[1] = test system: HCT116: human colon cancer cell line; test: Growth inhibition (cytotoxicity, WST-8) of HCT116 cells expressing only a low level of microsomal dipeptidase; type: cell-based; conditions: Homo sapiens, HCT-116, drug exposure time, read-out: Cytotoxicity (IC50 in nM) HCT116
Experimental: The activation of the compounds is mediated by microsomal dipeptidase. The inhibitory activities of the compounds is determined against growth of the cells expressing a low level of microsomal dipeptidase, those expressing a high level of microsomal dipeptidase, and granulocyte progenitors that are expanded ex vivo. […] A stable transfectant, HCT116/S5, into which the human microsomal dipeptidase cDNA (herafter called MDP) connected to the CMV promoter was transfected, is used as the cells expressing a high level of microsomal dipeptidase. […] HCT116, HCT116/S5, and granulocyte porogenitors are cultured in the absence and presence of the drugs. […] The IC50 values are determined and compared among HCT116, HCT116/S5, and granulocyte porogenitors.
Transfection of the DNA was carried out by using TransIT-LT2 (PanVera, Madison, USA, Calatog No. MIR2320) according to the manufacturer's instruction. […] The cells that grew in the presence of 1 mg/ml G418 were collected and cultivated in MaCoy5A medium.
By using 96-multi well plates, approximately 2×10^3 cells per well of the HCT116 bearing pRC/CMV and HCT116S5 carrying pRC/CMV-MDP were cultured in 200 μl of McCoy5A medium supplemented with 10% FBS in the presence or absence of the indicated concentrations of the drugs at 37° C. under 5% CO2 in humidified air. The cells were exposed to drugs for 24 hr (taxol, camptothecins and their prodrugs) or 96 hr (DMDC and its compounds). When the drug exposure time to the cells was 24 hr, culture medium containing drugs were removed, and the cells were washed and suspended in the fresh medium without drugs and further cultured at 37° C. under 5% CO2 in humidified air for the indicated days. […] To examine the effects of drugs on granulocyte progenitors, the granulocyte progenitors, which were expanded on a monolayer of MS-5 for 7 days, were collected and washed with RPMI1640 medium. Approximately 5000 cells were suspended in 200 μl of RPMI medium supplemented with 10% FBS and 50 ng/ml of G-CSF in the presence or absence of drugs and cultured in the presence of drugs for 24 hr (taxol, camptothecins and their prodrugs) or 7 days (DMDC and its prodrug) at 37° C. under 5% CO2 in humidified air. When the exposure time of drugs to the cells was 24 hr, the drugs were removed at 24 hr after addition of drugs by washing the cells with the above medium, and the cells were further cultured for 6 days in the same medium without drugs.

[2] = test system: HCT116/S5: HCT116 transfected with the human microsomal dipeptidase cDNA; test: Growth inhibition (cytotoxicity, WST-8) of HCT116/S5 cells expressing a high level of microsomal dipeptidase; type: cell-based; conditions: for Growth inhibition compared among HCT116, HCT116/S5 and granulocyte progenitor cells: HCT116/S5 (high microsomal dipeptidase) versus HCT116 and granulocyte progenitor cells (very little activity); for IC50: Homo sapiens, HCT-116, drug exposure time, read-out: Cytotoxicity (IC50 in nM) HCT116/S5
Experimental: (§1) The activation of the compounds is mediated by microsomal dipeptidase. The inhibitory activities of the compounds is determined against growth of the cells expressing a low level of microsomal dipeptidase, those expressing a high level of microsomal dipeptidase, and granulocyte progenitors that are expanded ex vivo. The human colon cancer cell line, HCT116 (American Type Culture Collection No. CCL-247), and granulocyte progenitors are used as the cells expressing only a low level of microsomal dipeptidase. A stable transfectant, HCT116/S5, into which the human microsomal dipeptidase cDNA (herafter called MDP) connected to the CMV promoter was transfected, is used as the cells expressing a high level of microsomal dipeptidase. The dipeptidase cDNA (Satoh et al. Biotechnol. Prog. 10 (2), 134-140 (1994)) and other references) and the cloning procedures as mentioned are known in the art. HCT116, HCT116/S5, and granulocyte porogenitors are cultured in the absence and presence of the drugs. […] The IC50 values are determined and compared among HCT116, HCT116/S5, and granulocyte porogenitors. Although time duration of the exposure of the cells to the drugs varies depending on the cells and drugs, it can be 24 hr, 96 or 168 hr.
Transfection of the DNA was carried out by using TransIT-LT2 (PanVera, Madison, USA, Calatog No. MIR2320) according to the manufacturer's instruction. The resulting transfectants were cultivated in MaCoy5A medium (Sigma, St Louis, USA, Catalog No. M8403) supplemented with 10% (v/v) fetal bovine serum and 1 mg/ml of geneticin disulfate (Wako, Osaka, Japan, Catalog No. 535-24624). The cells that grew in the presence of 1 mg/ml G418 were collected and cultivated in MaCoy5A medium.
By using 96-multi well plates, approximately 2×10^3 cells per well of the HCT116 bearing pRC/CMV and HCT116S5 carrying pRC/CMV-MDP were cultured in 200 μl of McCoy5A medium supplemented with 10% FBS in the presence or absence of the indicated concentrations of the drugs at 37° C. under 5% CO2 in humidified air. The cells were exposed to drugs for 24 hr (taxol, camptothecins and their prodrugs) or 96 hr (DMDC and its compounds). When the drug exposure time to the cells was 24 hr, culture medium containing drugs were removed, and the cells were washed and suspended in the fresh medium without drugs and further cultured at 37° C. under 5% CO2 in humidified air for the indicated days. Then, 10 μl of WST-8 (Cell Counting Kit-8, Wako, Osaka, Japan, Catalog No.343-07623) were added to the cultures, and the cells were further incubated at 37° C. for 1 or 2 hr. Cell growth inhibition was calculated as IC50 values according to optical densities at 450 nm and at 655 nm. To examine the effects of drugs on granulocyte progenitors, the granulocyte progenitors, which were expanded on a monolayer of MS-5 for 7 days, were collected and washed with RPMI1640 medium. Approximately 5000 cells were suspended in 200 μl of RPMI medium supplemented with 10% FBS and 50 ng/ml of G-CSF in the presence or absence of drugs and cultured in the presence of drugs for 24 hr (taxol, camptothecins and their prodrugs) or 7 days (DMDC and its prodrug) at 37° C. under 5% CO2 in humidified air. When the exposure time of drugs to the cells was 24 hr, the drugs were removed at 24 hr after addition of drugs by washing the cells with the above medium, and the cells were further cultured for 6 days in the same medium without drugs. Therafter, 20 μl of WST-1 (Roche Diagnostics, Mannheim, Germany, Catalog No. 1644807) were added to the cultures, and the cells were further incubated at 37° C. for 6 hr. Cell growth inhibition was calculated as IC50 values according to optical densities at 450 nm and at 655 nm.

[3] = Growth inhibition (cytotoxicity, WST-1) of granulocyte progenitors expanded ex vivo (CFU-GM); type: cell-based, human; conditions: human, drug exposure time; for IC50 at 24 h: then cultured for 6 days without drugs
Experimental: as §1
CD34-positive mononuclear cells derived from the human umbilical cord blood and bone marrow (Veritas Co, Tokyo, Japan, Catalog No.CB009F, ABM019F) were cultured on a confluent monolayer of MS5 (Itoh, K., et al. Reproducible establishment of hematopoietic supportive stromal cells from murine bone marrow. Exp. Hematol. 17, 145-153 (1989)). Mouse stromal cell lines in alpha MEM medium (Life Technologies, Gaithersburg, USA, Catalog No.12571-0063) supplemented with 10% (v/v) horse serum (HS) (Stem Cell Technologies, Vancouver, Canada, Catalog No. 06750), 10% (v/v) fetal bovine serum (FBS) (Stem Cell Technologies, Vancouver, Canada, Catalog No.06450), 50 ng/ml Flt3 ligand (PeproTec EC., London, UK., Catalog No. 300-19), 100 ng/ml SCF (PeproTech EC, London, UK., Catalog No. 300-07), and 50 ng/ml TPO (PeproTech EC, London, England, Catalog No. 300-18) at 37° C. under 5% CO2 in humidified air. Floating hematopoietic cells were collected and stained by monoclonal antibodies against PerCP-anti-CD34 (BD pharMingen, San Diego, USA, Catalog No.340430), PE-anti-CD13 (BD pharMingen, San Diego, USA, Catalog No. 30525X) and FlTC-anti-15(BD pharMingen, SanDiego, USA, Catalog No. PM30525X). Five microlitter of each antibody was added to a […] of cell suspension and incubated at 4° C. for 25 min. After washing with PBS containing 10% (v/v) FCS, the expression of CD antigens were detected by using FACSCalibur (Becton Dickinson, Franklin Lakes, N.J., USA) according to the FACSCalibur Traing mannual (FACStation ver1.1. Becton Dickinson, Franklin Lakes, N.J., USA.). […]

[4] = 24 hr, then drug removed and cells cultured further

Structure (SMILES)	IC50 [1, 4]	Growth inhibition compared among HCT116, HCT116/S5 and granulocyte progenitor cells [2]	IC50 at 24 h [3]	IC50 [2, 4]	IC50 ([1]; 96 hr)	IC50 ([2]; 96 hr)	IC50 at 168 h ([3]; 168 hr (7 days))
CC(=O)O[C@H]1C(=O)[C@@]2(C)[C@H]([C@H](OC(=O)c3ccccc3)[C@]3(O)C[C@H](OC(=O)[C@H](O)[C@@H](NC(=O)c4ccccc4)c4ccccc4)C(C)=C1C3(C)C)[C@]1(OC(C)=O)CO[C@@H]1C[C@@H]2O (relative stereo) [Paclitaxel, [2aR-[2aα,4β,4aβ,6β,9α(αR*,βS*),11α,12α,12aα,12bα]]-β-(benzoylamino)-α-hydroxybenzenepropanoic acid 6,12b-bis(acetyloxy)-12-(benzoyloxy)-2a,3,4,4a,5,6,9,10,11,12,12a,12b-dodecahydro-4,11-dihydroxy-4a,8,13,13-tetramethyl-5-oxo-7,11-methano-1H-cyclodeca[3,4]benz[1,2-b]oxet-9-yl ester, reference compound]	2.5 nM	not significantly different	16 nM				
CC[C@@]1(O)C(=O)OCc2c1cc1n(c2=O)Cc2cc3ccccc3nc2-1 [Camptothecin, 4(S)-ethyl-4-hydroxy-1H-pyrano[3′,4′:6,7]indolizino[1,2-b]quinoline-3,14(4H,12H)-dione, reference compound]	19 nM	not significantly different	6.1 nM	5.6 nM			
C=C1[C@H](n2ccc(N)nc2=O)O[C@H](CO)[C@H]1O [DMDC, 2′-deoxy-2′-methylidenecytidine, reference compound]		not significantly different			0.2 nM	0.3 nM	0.07 nM
